Assay [1] has as its system Human Foreskin Fibroblast (HFF). Briefly: Cytotoxicity assay, WST-1 cell proliferation reagent on HFF. It counts as cell-based. As to conditions: Homo sapiens, Fibroblast; supplement summary. The protocol:
Toxicity assays used WST-1 cell proliferation reagent (Roche) as in Fomovska et al. ([2012a]). HFF were grown on a flat, clear-bottomed, black 96-well plate. Confluent HFF were treated with inhibitory compounds at concentrations of 10 and 50 μM. Compounds were diluted in IMDM-C, and 20 μL were added to each designated well, with triplicates for each condition. A gradient with 2-folddecreasing concentrations of DMSO from 10 to 0% in colorless, translucent IMDM-C was used as a control. The plate was incubated for 72 h at 37°C. Ten microlitre WST-1 reagent (Roche) were added to each well. Cells were incubated for 30–60 min. Absorbance was read using a fluorimeter at 420 nm. A higher degree of color change (and absorbance) indicated mitochondrial activity and cell viability.
(In general: Tetrazolium assays rely on reduction of a dye to a coloured formazan, in cell work by metabolically active cells.)

The target of the next assay is hERG (Homo sapiens, UniProt Q12809). Briefly: hERG liability. It is filed as biochemical. In general terms: The hERG channel carries a current that helps repolarise heart muscle cells.
Sequence of hERG (Q12809 whole entry): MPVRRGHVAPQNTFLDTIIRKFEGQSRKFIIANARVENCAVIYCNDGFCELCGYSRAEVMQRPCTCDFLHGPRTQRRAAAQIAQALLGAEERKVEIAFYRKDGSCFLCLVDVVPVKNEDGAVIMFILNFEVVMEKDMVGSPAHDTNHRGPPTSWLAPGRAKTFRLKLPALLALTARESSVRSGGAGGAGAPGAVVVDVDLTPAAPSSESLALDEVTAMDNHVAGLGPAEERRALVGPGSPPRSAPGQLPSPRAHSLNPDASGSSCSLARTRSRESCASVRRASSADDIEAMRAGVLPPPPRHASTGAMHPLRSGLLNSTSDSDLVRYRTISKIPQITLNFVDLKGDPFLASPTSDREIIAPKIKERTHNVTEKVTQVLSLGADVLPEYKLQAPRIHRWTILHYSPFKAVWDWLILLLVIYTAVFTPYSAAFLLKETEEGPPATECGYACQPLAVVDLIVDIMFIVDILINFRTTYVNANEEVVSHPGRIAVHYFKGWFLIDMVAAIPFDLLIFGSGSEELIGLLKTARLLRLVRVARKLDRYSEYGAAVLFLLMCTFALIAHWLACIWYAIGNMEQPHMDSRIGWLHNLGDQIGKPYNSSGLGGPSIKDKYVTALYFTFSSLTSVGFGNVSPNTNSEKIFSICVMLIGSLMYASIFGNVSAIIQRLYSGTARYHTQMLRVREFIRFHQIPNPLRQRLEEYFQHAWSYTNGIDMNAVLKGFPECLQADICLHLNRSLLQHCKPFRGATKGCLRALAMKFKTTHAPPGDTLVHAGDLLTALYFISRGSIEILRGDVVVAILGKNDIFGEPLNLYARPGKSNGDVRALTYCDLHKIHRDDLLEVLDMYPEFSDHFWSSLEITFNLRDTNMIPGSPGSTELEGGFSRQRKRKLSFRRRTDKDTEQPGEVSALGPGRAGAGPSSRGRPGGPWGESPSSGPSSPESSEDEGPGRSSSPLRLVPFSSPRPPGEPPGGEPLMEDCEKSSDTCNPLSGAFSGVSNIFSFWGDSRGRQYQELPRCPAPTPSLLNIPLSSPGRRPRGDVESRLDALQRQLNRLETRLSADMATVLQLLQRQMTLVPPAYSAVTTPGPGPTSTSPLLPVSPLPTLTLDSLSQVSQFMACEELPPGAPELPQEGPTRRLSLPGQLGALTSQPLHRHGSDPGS

Broadly, the IC50 is the concentration at which inhibition is half-maximal. As for `Cc1[nH]c2c(c(=O)c1-c1ccc(Oc3ccc(OC(F)(F)F)cc3)cc1)CCCC2` [JAG21, 2-Methyl-3-(4-(4-(Trifluoromethoxy)Phenoxy)Phenyl)-5,6,7,8-Tetrahydroquinolin-4-One], the IC50 is above 7.5 µM in assay [1] and 22 µM at hERG.

Values taken from publication PMC7311950, “Potent Tetrahydroquinolone Eliminates Apicomplexan Parasites” (Frontiers in Cellular and Infection Microbiology, 2020).
